{
  "source": "patent US20250230193A1",
  "about": "“CYCLIC COMPOUND HAVING SELECTIVE KRAS INHIBITORY EFFECT ON HRAS AND NRAS” (CHUGAI SEIYAKU KABUSHIKI KAISHA, priority 2022, published 2025)",
  "key": {"[1]": {"biological_target": "GDP-bound HRAS wild-type protein (Homo sapiens, UniProt P01112)", "sequence (P01112 whole entry)": "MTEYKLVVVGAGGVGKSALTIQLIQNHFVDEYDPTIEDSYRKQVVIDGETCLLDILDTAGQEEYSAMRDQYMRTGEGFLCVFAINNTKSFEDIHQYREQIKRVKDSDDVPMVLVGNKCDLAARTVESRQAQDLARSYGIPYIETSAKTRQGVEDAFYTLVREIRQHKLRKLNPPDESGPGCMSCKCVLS", "test": "Binding to HRAS by surface plasmon resonance (SPR), Single Cycle Kinetics", "settings": "for HRAS/KRAS (ratio of KD value for HRAS to KD value for KRAS) / HRAS/KRAS (ratio of KD value with respect to HRAS to KD value with respect to KRAS): GDP-bound HRAS wild-type vs GDP-bound KRAS wild-type"}, "[2]": {"biological_target": "GDP-bound NRAS wild-type protein (Homo sapiens, UniProt P01111)", "sequence (P01111 whole entry)": "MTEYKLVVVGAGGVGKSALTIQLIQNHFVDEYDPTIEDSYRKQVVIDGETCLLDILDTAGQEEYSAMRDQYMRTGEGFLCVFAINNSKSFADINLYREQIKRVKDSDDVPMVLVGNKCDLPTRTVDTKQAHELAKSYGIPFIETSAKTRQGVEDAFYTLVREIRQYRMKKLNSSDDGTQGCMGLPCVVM", "test": "Binding to NRAS by surface plasmon resonance (SPR), Single Cycle Kinetics", "settings": "for NRAS/KRAS (ratio of KD value for NRAS to KD value for KRAS) / NRAS/KRAS (ratio of KD value with respect to NRAS to KD value with respect to KRAS): GDP-bound NRAS wild-type vs GDP-bound KRAS wild-type"}, "[3]": {"settings": "SPR, GDP-bound wild-type proteins"}},
  "note": "Where a SMILES comes first, the peptide text is derived from it. Bridges are numbered along the chain shown (N, C = ends). [ ]: non-standard residue; d: D form. The star is where a group is joined. hPhe(3-Cl-4-CF3) = N[C@@H](CCc1ccc(C(F)(F)F)c(Cl)c1)C(=O)O; NPrPhe(4-CF3) = CCCN[C@@H](Cc1ccc(C(F)(F)F)cc1)C(=O)O; NEtPhe(4-CF3) = CCN[C@@H](Cc1ccc(C(F)(F)F)cc1)C(=O)O; hPhe(3,4-Cl2) = N[C@@H](CCc1ccc(Cl)c(Cl)c1)C(=O)O; NMeGly(cPent) = CN[C@H](C(=O)O)C1CCCC1; NMeD = CN[C@@H](CC(=O)O)C(=O)O; NMeL = CN[C@@H](CC(C)C)C(=O)O; Morpholide = C1CN(*)CCO1; NMeA = CN[C@@H](C)C(=O)O; Ac5c = NC1(C(=O)O)CCCC1; Aze = O=C(O)[C@@H]1CCN1; Ac4c = NC1(C(=O)O)CCC1; Sar = CNCC(=O)O",
  "data": [
    {"smiles": "CC[C@H](C)[C@@H]1NC(=O)[C@@H]2CCCCc3ccc(cc3)C[C@@H](C(=O)N(C)CC(=O)N[C@@H](CCc3ccc(C(F)(F)F)c(OC)c3)C(=O)N3C[C@H](OC4CCC4)C[C@H]3C(=O)NC3(CC(C)(C)C3)C(=O)N(C)[C@@H](C3CCCC3)C(=O)N(C)[C@H](C(=O)N(C)CC)CC(=O)N2C)N2CC/C=C\\C[C@@H](C2=O)N(C)C(=O)CN(C)C1=O", "note": "[PP3079]", "values": [
      {"measurement": "HRAS/KRAS (ratio of KD value with respect to GDP-bound HRAS wild-type protein to KD value with respect to KRAS)", "setting": "[1]; [3]", "value": "B (a compound having 3 or more and less than 10 is denoted as B)"},
      {"measurement": "NRAS/KRAS (ratio of KD value with respect to GDP-bound NRAS wild-type protein to KD value with respect to KRAS)", "setting": "[2]; [3]", "value": "A (a compound having 10 or more and less than 20 is denoted as A)"}
    ]},
    {"smiles": "CCCN(C)C(=O)[C@@H]1CC(=O)N(C)[C@@H](CC(F)F)C(=O)N[C@@H]([C@@H](C)CC)C(=O)N(C)CC(=O)N(C)[C@H]2C/C=C\\CCN(C2=O)[C@@H](Cc2ccc(C(F)(F)F)cc2)C(=O)N(C)CC(=O)N[C@@H](CCc2cc(F)c(C(F)(F)F)c(F)c2)C(=O)N2CCC[C@H]2C(=O)NC2(CC(C)(C)C2)C(=O)N(C)[C@@H](C2CCCC2)C(=O)N1C", "note": "[PP1721]", "values": [
      {"measurement": "HRAS/KRAS (ratio of KD value for HRAS to KD value for KRAS)", "setting": "[1]; SPR", "value": "A (a compound having 10 or more and less than 20 is denoted as A)"},
      {"measurement": "NRAS/KRAS (ratio of KD value for NRAS to KD value for KRAS)", "setting": "[2]; SPR", "value": "A (a compound having 10 or more and less than 20 is denoted as A)"}
    ]},
    {"smiles": "CC[C@H](C)[C@@H]1NC(=O)[C@H](COC)N(C)C(=O)C[C@@H](C(=O)N(C)C)N(C)C(=O)[C@H](C2CCCC2)N(C)C(=O)C2(CC(C)(C)C2)NC(=O)[C@@H]2C[C@@H](OC(C)C)CN2C(=O)[C@H](CCc2cc(F)c(C(F)(F)F)c(F)c2)NC(=O)CN(C)C(=O)[C@H](CC2CCCCC2)N2CC/C=C\\C[C@@H](C2=O)N(C)C(=O)CN(C2CC2)C1=O", "note": "[PP2511]", "values": [
      {"measurement": "HRAS/KRAS (ratio of KD value with respect to HRAS to KD value with respect to KRAS)", "setting": "[1]; SPR", "value": "A (a compound having 10 or more and less than 20 is denoted as A)"},
      {"measurement": "NRAS/KRAS (ratio of KD value with respect to NRAS to KD value with respect to KRAS)", "setting": "[2]; SPR", "value": "A (a compound having 10 or more and less than 20 is denoted as A)"}
    ]},
    {"smiles": "CCCN(C)C(=O)[C@@H]1CC(=O)N(C)[C@@H](COCC)C(=O)N[C@@H]([C@@H](C)CC)C(=O)N(C)CC(=O)N(C)[C@H]2C/C=C\\CCN(C2=O)[C@@H](Cc2ccc(C(F)(F)F)cc2)C(=O)N(C)CC(=O)N[C@@H](CCc2cc(F)c(C(F)(F)F)c(F)c2)C(=O)N2C[C@H](OCC)C[C@H]2C(=O)NC2(CCC2)C(=O)N(C)[C@@H](C2CCCC2)C(=O)N1C", "note": "[PP1988]", "values": [
      {"measurement": "HRAS/KRAS (ratio of KD value for HRAS to KD value for KRAS)", "setting": "[1]; SPR", "value": "A (a compound having 10 or more and less than 20 is denoted as A)"},
      {"measurement": "NRAS/KRAS (ratio of KD value for NRAS to KD value for KRAS)", "setting": "[2]; SPR", "value": "A (a compound having 10 or more and less than 20 is denoted as A)"}
    ]},
    {"smiles": "CCO[C@@H]1C[C@H]2C(=O)NC3(CC(C)(C)C3)C(=O)N(C)[C@@H](C3CCCC3)C(=O)N(C)[C@H](C(=O)N(C)CC)CC(=O)N(C)[C@@H](C3CCC3)C(=O)N[C@@H]([C@@H](C)CC)C(=O)N(C)CC(=O)N(C)[C@H]3C/C=C\\CCN(C3=O)[C@@H](Cc3ccc(C(F)(F)F)cc3)C(=O)N(C)CC(=O)N[C@@H](CCc3cc(F)c(C(F)(F)F)c(F)c3)C(=O)N2C1", "note": "[PP2038]", "values": [
      {"measurement": "HRAS/KRAS (ratio of KD value with respect to HRAS to KD value with respect to KRAS)", "setting": "[1]; SPR", "value": "A (a compound having 10 or more and less than 20 is denoted as A)"},
      {"measurement": "NRAS/KRAS (ratio of KD value with respect to NRAS to KD value with respect to KRAS)", "setting": "[2]; SPR", "value": "A (a compound having 10 or more and less than 20 is denoted as A)"}
    ]},
    {"smiles": "CCCOC[C@H]1C(=O)N[C@@H]([C@@H](C)CC)C(=O)N2CCC[C@H]2C(=O)N(C)[C@H]2C/C=C\\CCN(C2=O)[C@@H](Cc2ccc(C(F)(F)F)cc2)C(=O)N(C)CC(=O)N[C@@H](CCc2ccc(C(F)(F)F)c(OC)c2)C(=O)N2C[C@H](OCC)C[C@H]2C(=O)N(C)C2(CCC2)C(=O)N(C)[C@@H](C2CCCC2)C(=O)N(C)[C@H](C(=O)N(C)C)CC(=O)N1C", "note": "[PP2322]", "values": [
      {"measurement": "HRAS/KRAS (ratio of KD value with respect to HRAS to KD value with respect to KRAS)", "setting": "[1]; SPR", "value": "B (a compound having 3 or more and less than 10 is denoted as B)"},
      {"measurement": "NRAS/KRAS (ratio of KD value with respect to NRAS to KD value with respect to KRAS)", "setting": "[2]; SPR", "value": "A (a compound having 10 or more and less than 20 is denoted as A)"}
    ]},
    {"smiles": "CCO[C@@H]1C[C@H]2C(=O)NC3(CCC3)C(=O)N(C)[C@@H](C3CCCC3)C(=O)N(C)[C@H](C(=O)N(C)CCOC)CC(=O)N(C)[C@@H](CC)C(=O)N[C@@H]([C@@H](C)CC)C(=O)N(C)CC(=O)N(C)[C@H]3C/C=C\\CCN(C3=O)[C@@H](Cc3ccc(C(F)(F)F)cc3)C(=O)N(C)CC(=O)N[C@@H](CCc3ccc(C(F)(F)F)c(OC)c3)C(=O)N2C1", "note": "[PP1321]", "values": [
      {"measurement": "HRAS/KRAS (ratio of KD value for GDP-bound HRAS wild-type protein to KD value for KRAS)", "setting": "[1]; SPR, KD ratio class", "value": "B (a compound having 3 or more and less than 10 is denoted as B)"},
      {"measurement": "NRAS/KRAS (ratio of KD value for GDP-bound NRAS wild-type protein to KD value for KRAS)", "setting": "[2]; SPR, KD ratio class", "value": "A (a compound having 10 or more and less than 20 is denoted as A)"}
    ]},
    {"smiles": "CCC[C@H]1C(=O)N[C@@H]([C@@H](C)CC)C(=O)N2CCC[C@H]2C(=O)N(C)[C@H]2C/C=C\\CCN(C2=O)[C@@H](Cc2ccc(C)cc2)C(=O)N(C)CC(=O)N[C@@H](CCc2ccc(Cl)c(Cl)c2)C(=O)N2C[C@H](OC(C)C)C[C@H]2C(=O)NC2(CC(C)(C)C2)C(=O)N(C)[C@@H](C(CC)CC)C(=O)N(C)[C@H](C(=O)N(C)C)CC(=O)N1C", "note": "[PP2641]", "values": [
      {"measurement": "HRAS/KRAS (ratio of KD value with respect to GDP-bound HRAS wild-type protein to KD value with respect to KRAS)", "setting": "[1]; class symbols", "value": "A (a compound having 10 or more and less than 20 is denoted as A)"},
      {"measurement": "NRAS/KRAS (ratio of KD value with respect to GDP-bound NRAS wild-type protein to KD value with respect to KRAS)", "setting": "[2]; class symbols", "value": "AA (a compound having 20 or more is denoted as AA)"}
    ]},
    {"smiles": "CCCC[C@H]1C(=O)N[C@@H]([C@@H](C)CC)C(=O)N(C)CC(=O)N(C)[C@H]2C/C=C\\CCN(C2=O)[C@@H](Cc2ccc(C)cc2)C(=O)N(C)CC(=O)N[C@@H](CCc2cc(F)c(C(F)(F)F)c(F)c2)C(=O)N2C[C@H](OCC)C[C@H]2C(=O)NC2(CC(C)(C)C2)C(=O)N(C)[C@@H](C2CCCC2)C(=O)N(C)[C@H](C(=O)N(C)C)CC(=O)N1C", "note": "[PP2800]", "values": [
      {"measurement": "HRAS/KRAS (ratio of KD value with respect to GDP-bound HRAS wild-type protein to KD value with respect to KRAS)", "setting": "[1]; class symbols", "value": "A (a compound having 10 or more and less than 20 is denoted as A)"},
      {"measurement": "NRAS/KRAS (ratio of KD value with respect to GDP-bound NRAS wild-type protein to KD value with respect to KRAS)", "setting": "[2]; class symbols", "value": "A (a compound having 10 or more and less than 20 is denoted as A)"}
    ]},
    {"smiles": "CC[C@H](C)[C@@H]1NC(=O)[C@H](CC(C)C)N(C)C(=O)C[C@@H](C(=O)N2CCOCC2)N(C)C(=O)[C@H](C2CCCC2)N(C)C(=O)C2(CCCC2)NC(=O)[C@@H]2CCCN2C(=O)[C@H](CCc2ccc(Cl)c(Cl)c2)NC(=O)CN(C)C(=O)[C@H](Cc2ccc(C(F)(F)F)cc2)N(CC)C(=O)[C@@H]2CCN2C(=O)[C@H](C)N(C)C1=O", "note": "[PP0223] ([NMeL]I[NMeA][Aze][NEtPhe(4-CF3)][Sar][hPhe(3,4-Cl2)]P[Ac5c][NMeGly(cPent)][NMeD]-Morpholide; lactam N-11)", "values": [
      {"measurement": "HRAS/KRAS (ratio of KD for GDP-bound HRAS wild-type to KD for KRAS)", "setting": "[1]; SPR", "value": "C (A compound having a KD ratio of 0.1 or more and less than 3 is denoted as C)"},
      {"measurement": "NRAS/KRAS (ratio of KD for GDP-bound NRAS wild-type to KD for KRAS)", "setting": "[2]; SPR", "value": "C (A compound having a KD ratio of 0.1 or more and less than 3 is denoted as C)"}
    ]},
    {"smiles": "CCCN1C(=O)CN(C)C(=O)CN(C)C(=O)[C@H]([C@@H](C)CC)NC(=O)[C@H](CC(C)C)N(C)C(=O)C[C@@H](C(=O)N(C)C)NC(=O)[C@H](C2CCCC2)N(C)C(=O)C2(CCC2)NC(=O)[C@@H]2CCCN2C(=O)[C@H](CCc2ccc(C(F)(F)F)c(Cl)c2)NC(=O)CN(C)C(=O)[C@@H]1Cc1ccc(C(F)(F)F)cc1", "note": "[PP0356] ([NMeL]I[Sar][Sar][NPrPhe(4-CF3)][Sar][hPhe(3-Cl-4-CF3)]P[Ac4c][NMeGly(cPent)]D-NMe2; lactam N-11)", "values": [
      {"measurement": "HRAS/KRAS (ratio of KD for GDP-bound HRAS wild-type to KD for KRAS)", "setting": "[1]; SPR", "value": "B (a compound having 3 or more and less than 10 is denoted as B)"},
      {"measurement": "NRAS/KRAS (ratio of KD for GDP-bound NRAS wild-type to KD for KRAS)", "setting": "[2]; SPR", "value": "B (a compound having 3 or more and less than 10 is denoted as B)"}
    ]}
  ]
}
